These results are taken from patent US20120040977A1, “INHIBITORS OF HCV NS5A” (PRESIDIO PHARMACEUTICALS, INC., priority 2009, published 2012).

The test system of the test is HCV genotype 1b replicon. Nature of the test: HCV replicon assay (HCV 1b_Huh-Luc/Neo-ET cell line, luciferase readout). Type of test: cell-based. To be noted: Hepatitis C virus; bicistronic genotype 1b replicon in Huh 7 cells, 72 h incubation, luciferase enzyme activity; read-out: Inhibition of HCV genotype 1b. In a few lines:
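Huh 7 cells carrying a bicistronic genotype 1b luciferase replicon treated with compound in triplicate for 72 h. Luciferase activity expressed as percent of untreated control; EC50 from four-parameter curve fit, determined several times.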
For `CC(C)[C@@H](NC(=O)OC(C)(C)C)C(=O)N1CCC[C@H]1C(=O)Nc1ccc(-c2ccc(-c3cnc([C@@H]4COCCN4C(=O)[C@H](NC(=O)OC(C)(C)C)C(C)C)[nH]3)cc2)cc1` [Compound 10], the EC50 is 10 to 999 nM. In the case of `C[C@H](NC(=O)[C@@H]1CCCN1C(=O)[C@H](NC(=O)C1CC1)c1ccccc1)c1ccc(-c2ccc(-c3cnc([C@@H]4CCCN4C(=O)[C@H](NC(=O)C4CC4)c4ccccc4)[nH]3)cc2)cc1` [Compound 37] it was less than 1 nM. Take `C[C@@H](NC(=O)OC(C)(C)C)C(=O)N1CCC[C@H]1C(=O)Nc1ccc(-c2ccc(-c3cnc([C@@H]4CCCN4C(=O)[C@@H](C)NC(=O)OC(C)(C)C)[nH]3)cc2)cc1` [Compound 14]: the EC50 fell in the range of 1 to 9.9 nM. Turning to `C[C@@H](NC(=O)OC(C)(C)C)C(=O)N1CCOC[C@H]1C(=O)Nc1ccc(-c2ccc(-c3cnc([C@@H]4COCCN4C(=O)[C@@H](C)NC(=O)OC(C)(C)C)[nH]3)cc2)cc1` [Compound 17], the EC50 fell in the range of 10 to 999 nM. As to `C[C@@H](NC(=O)C1CC1)C(=O)N1CCOC[C@H]1C(=O)Nc1ccc(-c2ccc(-c3cnc([C@@H]4COCCN4C(=O)[C@@H](C)NC(=O)C4CC4)[nH]3)cc2)cc1` [Compound 24], the EC50 lay in the range of 10 to 999 nM.

As to `O=C(Nc1ccc(-c2ccc(-c3cnc([C@@H]4COCCN4C(=O)[C@H](NC(=O)N4CCOCC4)c4ccccc4)[nH]3)cc2)cc1)[C@@H]1COCCN1C(=O)[C@H](NC(=O)N1CCOCC1)c1ccccc1` [Compound 2], the EC50 fell in the range of 1 to 9.9 nM. With `C[C@@H](NC(=O)[C@@H]1CCCN1C(=O)[C@H](NC(=O)N1CCOCC1)c1ccccc1)c1ccc(-c2ccc(-c3cnc([C@@H]4CCCN4C(=O)[C@H](NC(=O)N4CCOCC4)c4ccccc4)[nH]3)cc2)cc1` [Compound 41], the EC50 is 1 to 9.9 nM.
